# Reference: paper PMC12037037 (Proceedings of the National Academy of Sciences of the …, 2025)
# pEC50, pKi: −log10 of the molar value.
# Key:
# [1] = molecular target: 5-HT1A (Homo sapiens, UniProt P08908); assay: Functional assay at 5-HT1A (Fig. S4); type: cell-based
# Description: (§1) Figure S4. […] Radioligand binding (RLB) (top) and IP1 functional assays (bottom) for 5-HT1A (A), 5-HT5a (B), 5-HT6 (C), and 5-HT7 (D) receptors. Agonist or antagonist mode is indicated in the title of each graph. Data represent the mean ± SEM of 2 technical replicates.
# (§2) 5-carboxamidotryptamine; ND = not determined for incomplete curves.
# (§3) (1 picture or pasted object on this page, not shown here)
# [2] = system: C57BL/6J mice; assay: 4-odor discrimination and reversal after unpredictable mild stress; type: in vivo
# [3] = molecular target: 5-HT2 receptors (5-HT2A, 5-HT2B, 5-HT2C); assay: Competitive radioligand binding assays at 5-HT2 receptors; conditions: read-out: Ki range, entire family of 5-HT2 receptors; free base
# [4] = molecular target: psychLight S242A^5.46 (murinized variant) (Homo sapiens, UniProt P28223, S242A); assay: PsychLight assay, S242A^5.46 mutant; type: cell-based
# [5] = molecular target: 5-HT7 (Homo sapiens, UniProt P34969); assay: Functional assay at 5-HT7 (Fig. S4); type: cell-based
# Description: as §1, §2, §3
# [6] = system: C57BL/6J mice; assay: Head-twitch response (HTR) assay; type: in vivo; conditions: (+)-JRT 1 mg/kg IP pretreatment 15 min + LSD 0.2 mg/kg IP; mean ± SEM
# [7] = molecular target: T1, 5-HT2CR (Homo sapiens, UniProt P28335); assay: IP1 functional assay (5-HT2CR); type: cell-based; conditions: 5-HT2C, IP1, agonist mode
# T1 construct: Epics Therapeutics S.A
# [8] = system: male Sprague Dawley rats; assay: Rat forced swim test (FST); type: in vivo; conditions: for Swimming (Figure 6B) / Immobility (Figure 6B): 24 h after administration; for Swimming (Figure 6B): VEH 22.10 ± 1.929; for Immobility (Figure 6B): VEH 37.20 ± 1.867
# Description: Reads were aligned to the GRCm39 genome assembly using STAR, processed with Picard, and counted with the Subread software. Transcript inclusion criteria consisted of a minimum raw expression level of 25 transcripts in a minimum of 4 samples. Surrogate variable analysis was conducted with the sva package 2023 release v3.5.0 in R and normalization and differential expression analysis was performed with DESeq2 v4.3 with a baseMean threshold of 10. Heatmaps were created with the pheatmap v1.0.12 with sample-wise z-scores plotted and both row and column grouping allowed using pearson's distances and ward.D for clustering. Gene-wise selection criteria for heatmaps were a baseMean expression threshold of 50 to focus on robustly expressed genes, p value < 0.05, and presence in the top 250 genes sorted by absolute value of log2FC. Additionally, z score was capped at 2 for visualization purposes. Schizophrenia gene sets were extracted from a recent TWAS study (30).
# For Figure S8G, the TWAS set was filtered for FDR < 0.01. Permutation testing was conducted to quantify the overlap of top genes from schizophrenia TWAS with the perm_test function from the bulkWarehouse package 2023 release v1.2.7.
# Briefly, the intersection of top differentially expressed genes and top TWAS genes is compared to an empirical distribution created by calculating the intersection with our top DEGs when randomly sampling candidate genes from our dataset equal to the size of the TWAS sample. Selection criteria from the TWAS include an expression level of 25 transcripts in a minimum of 4 samples in our dataset, FDR < 0.01 from the TWAS and top 250 sorted by absolute value of log2FC. Selection criteria from our gene set were an expression level of 25 transcripts in a minimum of 4 samples, p value < 0.1 and top 250 sorted by absolute value of log2FC.
# Rat Forced Swim Test (FST). This study was performed by Psychogenics (Paramus, NJ). Male Sprague Dawley rats were purchased from Envigo (Indianapolis, IN), and were 8 weeks old at the time of the experiments. Upon receipt, they were assigned unique identification numbers (tail marked) and group housed in ventilated cages with 3 rats per cage. All animals […]
# remained housed in groups of three for the remainder of the study. All rats were acclimated to the colony room for up to one week prior to dosing. During the period of acclimation, rats were examined and handled daily, and weighed to assure adequate health and suitability. The room temperature was maintained between 20 °C and 23 °C with a relative humidity of 30%–70%. Lab Rodent Diet 5001 (W.F. Fisher, Cat # 11015) and water were provided ad libitum. Animals were randomly assigned across treatment groups. All testing was performed during the light phase of the light/dark cycle. Behavioral testing was conducted according to established protocols approved by the IACUC committee and PGI Standard Operation Procedures (SOP). Each forced swim chamber was constructed of clear acrylic (height = 40 cm; diameter = 20.3 cm). Only one rat was placed in the swim chamber at a time for each swim test. The water was changed and the chamber cleaned between each animal. The water depth was 16 cm in the first swim session (pre-test) and 30 cm in the second swim session (test). The water was maintained at 23 °C ± 1 °C for all swim sessions. At the end of each swim test rats were dried with paper towels and returned to the home cage. All animals were carefully monitored to ensure their safety in the swim test and any animal unable to maintain a posture with its nose above water was immediately removed from the water and not used further in the study. Animals were first subjected to a pre-test for 15 min. Immediately after the pre-test, they were administered compounds or VEH via i.p. injection (1 ml/kg). Racemic ketamine hydrochloride (10 mg/kg) was used as a positive control. A salt correction factor of 1.36 was used when preparing formulations of (+)-JRT to ensure that the dose corresponded to that of the free base. […]
# psychLight S242A^5.46 (murinized variant), sequence (P28223 with tags, fused parts or gaps S242A): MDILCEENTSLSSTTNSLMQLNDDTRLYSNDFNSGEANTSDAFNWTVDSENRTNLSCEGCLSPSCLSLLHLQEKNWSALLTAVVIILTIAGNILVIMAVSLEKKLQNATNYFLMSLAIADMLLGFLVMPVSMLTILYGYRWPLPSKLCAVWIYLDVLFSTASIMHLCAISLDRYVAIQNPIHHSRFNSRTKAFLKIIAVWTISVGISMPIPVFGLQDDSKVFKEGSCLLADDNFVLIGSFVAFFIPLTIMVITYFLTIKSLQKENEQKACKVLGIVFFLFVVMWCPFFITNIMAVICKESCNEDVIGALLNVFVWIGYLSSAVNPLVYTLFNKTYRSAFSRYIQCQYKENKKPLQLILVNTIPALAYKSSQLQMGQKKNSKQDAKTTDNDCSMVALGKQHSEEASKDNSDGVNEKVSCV
# psychLight S242A^5.46 (murinized variant), sequence (P42212 with tags, fused parts or gaps partner): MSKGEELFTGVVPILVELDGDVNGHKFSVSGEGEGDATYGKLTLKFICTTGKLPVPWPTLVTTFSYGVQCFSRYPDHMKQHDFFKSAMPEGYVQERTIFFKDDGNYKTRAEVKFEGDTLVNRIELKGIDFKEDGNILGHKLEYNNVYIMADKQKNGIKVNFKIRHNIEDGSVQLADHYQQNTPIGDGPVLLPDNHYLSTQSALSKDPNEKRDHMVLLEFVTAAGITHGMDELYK
# 5-HT7, sequence (P34969 whole entry): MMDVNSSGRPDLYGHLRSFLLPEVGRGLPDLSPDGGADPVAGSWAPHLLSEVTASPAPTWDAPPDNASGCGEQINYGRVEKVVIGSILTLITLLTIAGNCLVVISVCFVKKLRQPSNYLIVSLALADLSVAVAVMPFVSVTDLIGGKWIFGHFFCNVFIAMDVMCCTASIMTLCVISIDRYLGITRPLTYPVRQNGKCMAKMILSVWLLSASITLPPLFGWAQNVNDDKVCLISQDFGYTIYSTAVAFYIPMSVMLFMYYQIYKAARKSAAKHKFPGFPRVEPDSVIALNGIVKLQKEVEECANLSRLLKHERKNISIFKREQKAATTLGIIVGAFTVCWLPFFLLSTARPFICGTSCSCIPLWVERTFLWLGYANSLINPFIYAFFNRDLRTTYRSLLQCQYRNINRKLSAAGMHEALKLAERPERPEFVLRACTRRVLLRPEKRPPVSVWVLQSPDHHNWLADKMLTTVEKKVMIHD
# 5-HT1A, sequence (P08908 whole entry): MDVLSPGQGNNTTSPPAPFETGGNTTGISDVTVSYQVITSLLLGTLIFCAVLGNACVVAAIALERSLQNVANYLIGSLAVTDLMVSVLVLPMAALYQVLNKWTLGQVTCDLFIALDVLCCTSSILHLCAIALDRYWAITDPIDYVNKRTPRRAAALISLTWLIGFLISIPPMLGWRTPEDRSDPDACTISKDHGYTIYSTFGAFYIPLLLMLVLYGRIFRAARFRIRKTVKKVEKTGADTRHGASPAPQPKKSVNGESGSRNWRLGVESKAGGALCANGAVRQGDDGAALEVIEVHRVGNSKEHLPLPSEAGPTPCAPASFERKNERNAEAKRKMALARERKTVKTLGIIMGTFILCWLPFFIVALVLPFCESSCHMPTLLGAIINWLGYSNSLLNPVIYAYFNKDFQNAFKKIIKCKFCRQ
# T1 sequence (P28335 33-458): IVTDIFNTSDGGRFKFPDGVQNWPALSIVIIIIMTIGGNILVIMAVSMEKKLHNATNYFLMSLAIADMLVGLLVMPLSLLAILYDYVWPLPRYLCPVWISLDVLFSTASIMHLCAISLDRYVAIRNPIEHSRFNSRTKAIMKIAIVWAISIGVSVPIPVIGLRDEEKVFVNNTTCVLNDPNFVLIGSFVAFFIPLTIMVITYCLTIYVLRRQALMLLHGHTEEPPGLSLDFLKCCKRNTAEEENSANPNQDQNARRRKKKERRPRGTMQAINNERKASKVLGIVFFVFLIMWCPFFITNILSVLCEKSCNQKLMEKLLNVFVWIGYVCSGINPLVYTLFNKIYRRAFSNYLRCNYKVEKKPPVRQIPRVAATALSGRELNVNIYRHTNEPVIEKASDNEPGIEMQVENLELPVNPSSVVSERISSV
compound,measurement,setting,value
CCN(CC)C(=O)[C@@H]1C=C2c3cccc4ccn(c34)C[C@H]2N(C)C1 [(+)-JRT],Functional activity at 5-HT1A,[1],agonist or partial agonist
same,Discrimination (Figure 7B),"[2]; (+)-JRT 1 mg/kg IP + Stress (UMS), VEH + Stress 20.20 ± 1.843, VEH – Stress 21.27 ± 2.516",20.50 ± 2.212
same,Reversal (Figure 7B),"[2]; (+)-JRT 1 mg/kg IP + Stress (UMS), VEH + Stress 21.00 ± 2.385, VEH – Stress 13.64 ± 1.744",12.40 ± 1.118
same,Total Trials (Figure S17),"[2]; Stress + (+)-JRT 1 mg/kg IP, Stress 41.20 ± 3.972, VEH 34.91 ± 2.661",32.90 ± 2.479
same,pKi,[3],6.74 to 8.70
same,pEC50,"[4]; psychLight (S242A^5.46): EC50, agonist mode",7.41
same,pEC50,"[4]; psychLight (S242A^5.46): EC50, antagonist mode, cotreated with 10 μM serotonin (5-HT + compound)",6.33
same,Emax,[4]; read-out: psychLight (S242A^5.46): EMax,32%
same,"Functional activity at 5-HT7, agonist mode",[5],agonist or partial agonist
same,Head-twitches over 20 min (Figure 5A Antagonism),[6],1.500 ± 0.3450
same,Emax,[7],89%
same,Swimming (Figure 6B),[8]; 0.3mg/kg IP,31.70 ± 2.534
same,Immobility (Figure 6B),[8]; 0.3mg/kg IP,27.20 ± 2.546
same,Swimming (Figure 6B),[8]; 1.0mg/kg IP,31.50 ± 1.778
same,Immobility (Figure 6B),[8]; 1.0mg/kg IP,27.70 ± 1.850
same,Potency relative to ketamine in the forced swim test,[8]; lowest effective dose not determined,at least 100 fold
